Earlier results, collected in patent US20070135395A1, “Novel method for the preparation of intermediates useful for the synthesis fo vitamin d analogues” (Leo Pharma A/S, priority 2004, published 2007).

System: epidermal keratinocytes
Details: cited: Castelijins et al., Acta Derm. Venereol. 79, 11, 1999

C=C1/C(=C\C=C2/CCC[C@]3(C)[C@@H]([C@H](C)/C=C/[C@@H](O)C4CC4)CC[C@@H]23)C[C@@H](O)C[C@@H]1O [Calcipotriol, (5Z, 7E, 22E, 24S)-24-cyclopropyl-9,10-secochola-5,7,10(19),22-tetraene-1α-3β-24-triol]
activity in inhibiting undesirable proliferation of epidermal keratinocytes: strong activity
